# Data published in patent US20230255953A1, “USE OF ROLUPERIDONE IN PREVENTING RELAPSE IN SCHIZOPHRENIA PATIENTS” (Minerva Neurosciences, Inc., priority 2022, published 2023).
# Assays:
# [1] = tested on: patients with negative symptoms of schizophrenia; test: Study #1 (MIN-101C03): Personal and Social Performance (PSP); type: in vivo, human; conditions: Week 12 DB; for Change from Baseline LS Mean: PSP Disturbing & Aggressive Behavior / Change from Baseline LS Mean: PSP Personal and Social Relationships / Change from Baseline LS Mean: PSP Self-care / Change from Baseline LS Mean: PSP Socially Useful Activities / Change from Baseline LS Mean: PSP Total Score (mapped from the 4 domains) / Effect Size vs Placebo: PSP Disturbing & Aggressive Behavior / Effect Size vs Placebo: PSP Personal and Social Relationships / Effect Size vs Placebo: PSP Self-care / Effect Size vs Placebo: PSP Socially Useful Activities / Effect Size vs Placebo: PSP Total Score (mapped from the 4 domains): ITT
# From the text: The PSP is a validated clinician-rated scale intended to reflect real-life situations that measures personal and social functioning in 4 domains: (a) socially useful activities, (b) personal and social relationships, (c) self-care, and (d) disturbing and aggressive behaviors. The score is based on the assessment of a patient's performance in the 4 domains. The PSP Total score is a single measurement of functioning ranging from 1 to 100, where a higher score represents better functioning. A score of 91 to 100 indicates excellent functioning in all 4 main areas; the patient is held in high consideration for their good qualities, copes adequately with life problems, and is involved in a wide range of interests and activities. A score of 1 to 10 indicates a lack of autonomy in basic functioning with extreme behaviors but without survival risk (score 6 to 10) or with survival risk (score 1 to 5). […] Review of the relevant scientific literature and the analysis of the psychometric properties of the 4 domains that result in the generation of the PSP Total score were supportive of the appropriateness and cross-cultural applicability of the use of the PSP in drug development for the indication of negative symptoms of schizophrenia The PSP was assessed at the timepoints described in Table 6. The changes from Baseline in the PSP Total score and individual domain scores after 12 weeks of treatment were exploratory efficacy endpoints in Study MIN-101C03, and the Total score was the key secondary efficacy endpoint and the PSP domain scores were exploratory endpoints in Study MIN-101C07.
# Phase 2b Study #1 (also referred to herein as “MIN-101C03”) was a Phase 2b, double-blind (“DB”), placebo-controlled, randomized, multicenter 12-week study to evaluate the efficacy, safety, and tolerability of Roluperidone in patients ≥18 years to ≤60 years with negative symptoms of schizophrenia, followed by a 24-week open-label (“OL”) extension. The primary objective of the study was to evaluate the efficacy of Roluperidone compared to placebo in improving the negative symptoms of schizophrenia as measured by the change from Baseline in the PANSS negative factor score of the PSM (“PANSS PSM”) over 12 weeks of treatment.
# The study consisted of a pretreatment screening period of up to 28 days (including washout), a 12-week, DB, placebo-controlled period, and a 24-week OL period. Eligible patients (who were symptomatically stable for at least 3 months and had scores of at least 20 on the PANSS negative subscale score) were randomized in a 1:1:1 ratio to receive oral Roluperidone (a modified-release, “MR”, formulation) 32 mg QD, Roluperidone 64 mg QD, or placebo for 12 weeks. […] During the 24-week, OL treatment extension period, patients who were initially randomized to Roluperidone 32 mg or 64 mg continued on the same dose, while patients who were initially randomized to placebo crossed over to Roluperidone 32 mg or 64 mg in a 1:1 ratio.
# [2] = tested on: histaminergic receptors; conditions: background statement; cited from earlier work
substance,measurement,setting,value
"1H-Isoindol-1-one,2-[ [1-[2-(4-fluorophenyl)-2-oxoethyl]-4-piperidinyl]methyl]-2,3-dihydro-, hydrochloride, hydrate (1:1:2) [Roluperidone]",Effect Size vs Placebo: 7-Point improvement in PSP Total Score responders,[1]; 32 mg QD,0.05
same,Effect Size vs Placebo: 10-Point improvement in PSP Total Score responders,[1]; 32 mg QD,0.05
same,Number of Patients with 7-Point improvement in PSP Total Score at Week 12,[1]; 32 mg QD,17/50
same,Number of Patients with 10-Point improvement in PSP Total Score at Week 12,[1]; 32 mg QD,17/50
same,Patients with 7-Point improvement in PSP Total Score at Week 12 (%),[1]; 32 mg QD,(34%)
same,Patients with 10-Point improvement in PSP Total Score at Week 12 (%),[1]; 32 mg QD,(34%)
same,Change from Baseline LS Mean: PSP Disturbing & Aggressive Behavior,[1]; 32 mg QD,−0.15
same,Change from Baseline LS Mean: PSP Personal and Social Relationships,[1]; 32 mg QD,−0.22
same,Change from Baseline LS Mean: PSP Self-care,[1]; 32 mg QD,−0.37
same,Change from Baseline LS Mean: PSP Socially Useful Activities,[1]; 32 mg QD,−0.41
same,Change from Baseline LS Mean: PSP Total Score (mapped from the 4 domains),[1]; 32 mg QD,1.77
same,Effect Size vs Placebo: PSP Disturbing & Aggressive Behavior,[1]; 32 mg QD,0.36
same,Effect Size vs Placebo: PSP Personal and Social Relationships,[1]; 32 mg QD,0.02
same,Effect Size vs Placebo: PSP Self-care,[1]; 32 mg QD,0.27
same,Effect Size vs Placebo: PSP Socially Useful Activities,[1]; 32 mg QD,0.14
same,Effect Size vs Placebo: PSP Total Score (mapped from the 4 domains),[1]; 32 mg QD,−0.01
same,Effect Size vs Placebo: 7-Point improvement in PSP Total Score responders,[1]; 64 mg QD,0.17
same,Effect Size vs Placebo: 10-Point improvement in PSP Total Score responders,[1]; 64 mg QD,0.17
same,Number of Patients with 7-Point improvement in PSP Total Score at Week 12,[1]; 64 mg QD,26/54
same,Number of Patients with 10-Point improvement in PSP Total Score at Week 12,[1]; 64 mg QD,26/54
same,Change from Baseline LS Mean: PSP Disturbing & Aggressive Behavior,[1]; 64 mg QD,−0.24
same,Change from Baseline LS Mean: PSP Personal and Social Relationships,[1]; 64 mg QD,−0.56
same,Change from Baseline LS Mean: PSP Self-care,[1]; 64 mg QD,−0.48
same,Change from Baseline LS Mean: PSP Socially Useful Activities,[1]; 64 mg QD,−0.57
same,Change from Baseline LS Mean: PSP Total Score (mapped from the 4 domains),[1]; 64 mg QD,8.52
same,Effect Size vs Placebo: PSP Disturbing & Aggressive Behavior,[1]; 64 mg QD,0.51
same,Effect Size vs Placebo: PSP Personal and Social Relationships,[1]; 64 mg QD,0.53
same,Effect Size vs Placebo: PSP Self-care,[1]; 64 mg QD,0.46
same,Effect Size vs Placebo: PSP Socially Useful Activities,[1]; 64 mg QD,0.38
same,Effect Size vs Placebo: PSP Total Score (mapped from the 4 domains),[1]; 64 mg QD,0.56
same,Affinity,[2],very low or no affinity
